Where a name gives a salt, the structure may show the parent alone.
Legend:
[1] = Plasma hydrolysis of nalbuphine prodrug, human plasma
[2] = Plasma hydrolysis of nalbuphine prodrug, monkey plasma
[3] = Plasma hydrolysis of nalbuphine prodrug, dog plasma
[4] = Plasma hydrolysis of nalbuphine prodrug, rat plasma
[5] = Oral 3-hydroxymorphinan bioavailability (nalbuphine), rat; settings: plasma, 20 mg/kg
[6] = Oral nalbuphine bioavailability, monkey; settings: 4 mg nalbuphine/kg, % dose, two values, 4 mg/kg
[7] = Oral nalbuphine bioavailability, human
[8] = Oral 3-hydroxymorphinan bioavailability, dog (drug and prodrugs); settings: 4 mg/kg
[9] = Oral 3-hydroxymorphinan bioavailability, species not printed at the place; settings: 10 mg naloxone/kg, species not given

Compound CC(=O)Oc1ccccc1C(=O)Oc1ccc2c3c1O[C@H]1[C@@H](O)CC[C@@]4(O)[C@@H](C2)N(CC2CCC2)CC[C@]314 [Example 1, Nalbuphine-3-(acetylsalicylate)] has a half-life at 0.28 µM [1] of 6.2 h, a half-life at 0.28 µM [2] of 0.6 h and a half-life at 0.28 µM [3] of 2.8 h. For the same compound, the half-life at 0.28 µM [4] was 0.2 h.

With Nc1ccccc1C(=O)Oc1ccc2c3c1O[C@H]1[C@@H](O)CC[C@@]4(O)[C@@H](C2)N(CC2CCC2)CC[C@]314 [Example 2, Nalbuphine-3-anthranilate hydrochloride] the half-life at 0.28 µM [1] was 45 h, the half-life at 0.28 µM [2] was 3.3 h and the half-life at 0.28 µM [3] was 14.6 h. For the same compound, the half-life at 0.28 µM [4] was 1.5 h.

In the case of Oc1ccc2c3c1O[C@H]1[C@@H](O)CC[C@@]4(O)[C@@H](C2)N(CC2CCC2)CC[C@]314 [nalbuphine, (-)-17-(Cyclobutylmethyl)-4,5α-epoxymorphinan-3,6α,14-triol], the bioavailability [5] is reported as 2.7 ± 0.4%, the “Oral nalbuphine bioavailability (F)” value [6] is reported as 1.6% and the bioavailability ([6]; plasma, po, Oral nalbuphine bioavailability (F)) is reported as 0.9%. For the same compound, the “Oral nalbuphine bioavailability (F)” value ([7]; 45 mg tablet or solution, % dose) was 14%, the bioavailability ([7]; plasma, po, 45 mg) was 14% and the “Oral nalbuphine bioavailability (F)” value ([8]; oral, 4 mg nalbuphine/kg, % dose, mean ± SE) was 5.4 ± 0.9%. The bioavailability ([8]; plasma, po) was 5.4%.

For C=CCN1CC[C@]23c4c5ccc(O)c4O[C@H]2C(=O)CC[C@@]3(O)[C@H]1C5 [naloxone HCl, (-)-17-Allyl-4,5α-epoxy-3,14-dihydroxymorphinan-6-one], the “Plasma naloxone concentrations after oral naloxone HCl” value [9] was “close to the assay detection limits and as such were erratic”.
